Results on 14 compounds are retold here after ChEMBL document CHEMBL4813956, “Cytotoxic Physalins from Aeroponically Grown Physalis acutifolia” (J Nat Prod, 2021).

Data set [1] concerns MCF7. The data set can be described thus: Cytotoxicity against human MCF7 cells assessed as cell growth inhibition measured after 24 to 72 hrs by MTT assay. It counts as functional, cell-based. A general note: Tetrazolium dyes change colour on reduction, which living cells bring about.
Data set [2] has as its system WI-38. The data set is described as follows: Cytotoxicity against human WI-38 cells assessed as cell growth inhibition measured after 24 to 72 hrs by MTT assay. The data set is classed as cell-based.
Data set [3] concerns PC-3. The data set is described as follows: Cytotoxicity against human PC-3 cells assessed as cell growth inhibition measured after 24 hrs by MTT assay. The data set is classed as functional, cell-based. The note with it: PC-3, 24 h.
The subject of data set [4] is MCF7. The data set can be described thus: Cytotoxicity against human MCF7 cells assessed as cell growth inhibition measured after 24 hrs by MTT assay. The data set is classed as functional, cell-based. The note with it: MCF7, 24 h.
For data set [5], the system named is PC-3. The data set is described as follows: Cytotoxicity against human PC-3 cells assessed as cell growth inhibition measured after 24 to 72 hrs by MTT assay. The data set is classed as functional, cell-based.
Data set [6] relates to SF-268. The data set is described as follows: Cytotoxicity against human SF-268 cells assessed as cell growth inhibition measured after 24 to 72 hrs by MTT assay. The data set is classed as functional, cell-based.
The test system of data set [7] is NCI-H460. The data set is described as follows: Cytotoxicity against human NCI-H460 cells assessed as cell growth inhibition measured after 24 to 72 hrs by MTT assay. The data set is classed as functional, cell-based.
Data set [8] concerns NCI-H460. The data set can be described thus: Cytotoxicity against human NCI-H460 cells assessed as cell growth inhibition measured after 24 to 72 hrs in presence of 2,3-dihydrophysalin F-3beta-O-sulfate by MTT assay. It counts as functional, cell-based.
The test system of data set [9] is SF-268. The data set is described as follows: Cytotoxicity against human SF-268 cells assessed as cell growth inhibition measured after 24 to 72 hrs in presence of 2,3-dihydrophysalin F-3beta-O-sulfate by MTT assay. It counts as functional, cell-based.
Data set [10] relates to PC-3. The data set can be described thus: Cytotoxicity against human PC-3 cells assessed as cell growth inhibition measured after 24 to 72 hrs in presence of 2,3-dihydrophysalin F-3beta-O-sulfate by MTT assay. It counts as functional, cell-based.
Data set [11] deals with MCF7. The data set is described as follows: Cytotoxicity against human MCF7 cells assessed as cell growth inhibition measured after 24 to 72 hrs in presence of 2,3-dihydrophysalin F-3beta-O-sulfate by MTT assay. It counts as functional, cell-based.
Data set [12] concerns WI-38. The data set is described as follows: Cytotoxicity against human WI-38 cells assessed as cell growth inhibition measured after 24 to 72 hrs in presence of 2,3-dihydrophysalin F-3beta-O-sulfate by MTT assay. The data set is classed as cell-based.
Data set [13] deals with PC-3. The data set is described as follows: Cytotoxicity against human PC-3 cells assessed as cell growth inhibition up to 10 uM measured after 24 to 72 hrs by MTT assay relative to control. The data set is classed as functional. The note with it: dose microM <=10; time 24-72 hrs.
For data set [14], the system named is SF-268. The data set is described as follows: Cytotoxicity against human SF-268 cells assessed as cell growth inhibition up to 10 uM measured after 24 to 72 hrs by MTT assay relative to control. The note with it: dose microM <=10; time 24-72 hrs. The data set is classed as functional.
The test system of data set [15] is MCF7. The data set is described as follows: Cytotoxicity against human MCF7 cells assessed as cell growth inhibition up to 10 uM measured after 24 to 72 hrs by MTT assay relative to control. It counts as functional. The note with it: dose microM <=10; time 24-72 hrs.
The test system of data set [16] is WI-38. The data set can be described thus: Cytotoxicity against human WI-38 cells assessed as cell growth inhibition up to 10 uM measured after 24 to 72 hrs by MTT assay relative to control. It counts as cell-based. The note with it: time 24-72 hrs.
For data set [17], the system named is NCI-H460. The data set can be described thus: Cytotoxicity against human NCI-H460 cells assessed as cell growth inhibition up to 10 uM measured after 24 to 72 hrs by MTT assay relative to control. The note with it: dose microM <=10; time 24-72 hrs. It counts as functional.
Data set [18] deals with WI-38. The data set can be described thus: Cytotoxicity against human WI-38 cells assessed as cell growth inhibition measured after 24 to 72 hrs in presence of 5beta,6beta-epoxy-2,3-dihydrophysalin C-3beta-O-sulfate by MTT assay. It counts as cell-based.
In data set [19] the test system is MCF7. The data set can be described thus: Cytotoxicity against human MCF7 cells assessed as cell growth inhibition measured after 24 to 72 hrs in presence of 5beta,6beta-epoxy-2,3-dihydrophysalin C-3beta-O-sulfate by MTT assay. It counts as functional, cell-based.
Data set [20] relates to SF-268. The data set can be described thus: Cytotoxicity against human SF-268 cells assessed as cell growth inhibition measured after 24 to 72 hrs in presence of 5beta,6beta-epoxy-2,3-dihydrophysalin C-3beta-O-sulfate by MTT assay. The data set is classed as functional, cell-based.
Data set [21] deals with NCI-H460. The data set is described as follows: Cytotoxicity against human NCI-H460 cells assessed as cell growth inhibition measured after 24 to 72 hrs in presence of 5beta,6beta-epoxy-2,3-dihydrophysalin C-3beta-O-sulfate by MTT assay. The data set is classed as functional, cell-based.
Data set [22] concerns PC-3. The data set is described as follows: Cytotoxicity against human PC-3 cells assessed as cell growth inhibition measured after 24 to 72 hrs in presence of 5beta,6beta-epoxy-2,3-dihydrophysalin C-3beta-O-sulfate by MTT assay. The data set is classed as functional, cell-based.

For the compound `C/C(=C1/C(=O)C[C@H]2[C@@H]3[C@@H]4O[C@@H]4[C@@]4(O)CC=CC(=O)[C@]4(C)[C@H]3CC(=O)[C@]12C)[C@H]1C[C@]2(C)O[C@]2(C)C(=O)O1`, the half-inhibitory concentration (IC50) in the data set on MCF7 [1] was more than 10000 nM; in the data set on WI-38 [2], more than 10000 nM; in the data set on PC-3 [3], 68000 nM; in the data set with MCF7 [4] it was more than 100000 nM; in the data set with PC-3 [5] it was 2300 nM; in the data set on SF-268 [6], 7200 nM. Besides, in the data set on NCI-H460 [7], the IC50 stood at 6500 nM.
For the compound `C=C1C(=O)O[C@@H]2C[C@@]1(C)[C@@H]1C(=O)[C@]3(O)O[C@@]14[C@@](O)(CC[C@H]1[C@H]3C[C@H]3O[C@]35C[C@@H](OS(=O)(=O)O)CC(=O)[C@]15C)C(=O)O[C@@]24C`, the IC50 with NCI-H460 [8] was 2000 nM; with SF-268 [9] it was 2400 nM; in the data set with PC-3 [10], 2600 nM; in the data set on MCF7 [11] it was more than 7200 nM; in the data set on WI-38 [12], more than 10000 nM.
As to `C[C@@]12C[C@H]3OC(=O)[C@@H]1CO[C@]14O[C@]5([C@H]2C1=O)[C@@](O)(CC[C@H]1[C@H]4C[C@@H](O)[C@@]2(Cl)CC=CC(=O)[C@]12C)C(=O)O[C@@]35C`, the half-inhibitory concentration (IC50) in the data set with MCF7 [1] turned out to be 2100 nM; in the data set with WI-38 [2], 3900 nM; with PC-3 [5], 1000 nM; in the data set with SF-268 [6], 800 nM; in the data set with NCI-H460 [7], 600 nM.
Consider `C[C@@]12C[C@H]3OC(=O)[C@@H]1CO[C@]14O[C@@]5([C@H]2C1=O)[C@@]3(C)OC(=O)[C@@]5(O)CC[C@H]1[C@H]4C[C@H]2O[C@]23CC=CC(=O)[C@]13C`, for which the half-maximal inhibitory concentration (IC50) in the data set with MCF7 [1] came out at 600 nM; in the data set with WI-38 [2] it was 3500 nM; with PC-3 [5], 1000 nM; in the data set with SF-268 [6] it was 500 nM; in the data set on NCI-H460 [7] it was 1000 nM.
`CC(=O)O[C@]12O[C@@]34[C@@H](C1=O)[C@]1(C)C[C@@H](OC(=O)[C@H]1C)[C@]3(C)OC(=O)[C@]4(O)CC[C@H]1[C@H]2C[C@H]2O[C@]23CCCC(=O)[C@]13C`: the “growth inhibition (GI)” value in the data set on PC-3 [13], in the data set on SF-268 [14], in the data set on MCF7 [15], with WI-38 [16] and in the data set with NCI-H460 [17] was less than 50% in each case.
With `C=C1C(=O)O[C@@H]2C[C@@]1(C)[C@@H]1C(=O)[C@]3(O)O[C@@]14[C@@](O)(CC[C@H]1[C@H]3C[C@@H](O)[C@@]3(Cl)CC=CC(=O)[C@]13C)C(=O)O[C@@]24C`, the IC50 with MCF7 [1] was determined as 1200 nM; with WI-38 [2], 3200 nM; in the data set on PC-3 [5], 800 nM; with SF-268 [6], 500 nM; with NCI-H460 [7], 600 nM.
Turning to `C[C@]12C(=O)C=CCC1=CC[C@@H]1[C@@H]2CC[C@]2(O)C(=O)O[C@@]3(C)[C@H]4C[C@]5(C)[C@@H](CO[C@@]16O[C@@]32[C@H]5C6=O)C(=O)O4` [PHYSALIN B], the IC50 with MCF7 [1] was determined as 1000 nM; in the data set with WI-38 [2] it was 3300 nM; in the data set with PC-3 [5], 1000 nM; in the data set on SF-268 [6] it was 600 nM; in the data set on NCI-H460 [7] it was 900 nM.
For `COc1cccc2c1C(=O)c1c(O)c3c(c(O)c1C2=O)C[C@@](O)(C(=O)CO)C[C@@H]3O[C@H]1C[C@H](N)[C@H](O)[C@H](C)O1` [DOXORUBICIN], the IC50 with SF-268 [6] amounted to 500 nM.
Turning to `CO[C@]12CC=CC(=O)[C@]1(C)[C@H]1CC[C@@]3(O)C(=O)O[C@@]4(C)[C@H]5C[C@]6(C)[C@@H](CO[C@@]7(O[C@]34[C@H]6C7=O)[C@@H]1C[C@H]2O)C(=O)O5`, the “growth inhibition (GI)” value in the data set with PC-3 [13], with SF-268 [14], with MCF7 [15], with WI-38 [16] and with NCI-H460 [17] was less than 50% each time.
Turning to `C[C@@]12C[C@H]3OC(=O)[C@@H]1CO[C@]14O[C@@]5([C@H]2C1=O)[C@@]3(C)OC(=O)[C@@]5(O)CC[C@H]1[C@H]4C[C@@H](O)[C@@]2(O)CC=CC(=O)[C@]12C`, the “growth inhibition (GI)” value in the data set with PC-3 [13], in the data set on SF-268 [14], in the data set with MCF7 [15], in the data set on WI-38 [16] and in the data set on NCI-H460 [17] was less than 50% each time.
Turning to `C[C@@]12C[C@H]3OC(=O)[C@@H]1CO[C@]14O[C@]5([C@H]2C1=O)[C@@](O)(CC[C@H]1[C@H]4C[C@H]2O[C@]24C[C@@H](OS(=O)(=O)O)CC(=O)[C@]14C)C(=O)O[C@@]35C`, the IC50 is more than 10000 nM with WI-38 [18]; more than 7200 nM with MCF7 [19]; 2400 nM in the data set with SF-268 [20]; 2000 nM in the data set with NCI-H460 [21]; 2600 nM with PC-3 [22].
Regarding `C=C1C(=O)O[C@@H]2C[C@@]1(C)[C@@H]1C(=O)[C@]3(O)O[C@@]14[C@@](O)(CC[C@H]1[C@H]3C[C@H]3O[C@]35CC=CC(=O)[C@]15C)C(=O)O[C@@]24C`, the IC50 in the data set on MCF7 [1] stood at 1700 nM; with WI-38 [2], 3900 nM; in the data set with PC-3 [5], 1000 nM; with SF-268 [6] it was 900 nM; in the data set on NCI-H460 [7] it was 1200 nM.
As to `CO[C@@H]1CC(=O)[C@]2(C)[C@H]3CC[C@@]4(O)C(=O)O[C@@]5(C)[C@H]6C[C@]7(C)[C@@H](CO[C@@]8(O[C@]45[C@H]7C8=O)[C@@H]3C[C@H]3O[C@]32C1)C(=O)O6`, the “growth inhibition (GI)” value in the data set on PC-3 [13], in the data set on SF-268 [14], in the data set with MCF7 [15], in the data set on WI-38 [16] and in the data set with NCI-H460 [17] was less than 50% each time.
As for `C[C@@H]1C(=O)O[C@@H]2C[C@@]1(C)[C@@H]1C(=O)[C@]3(O)O[C@@]14[C@@](O)(CC[C@H]1[C@H]3C[C@H]3O[C@]35CCCC(=O)[C@]15C)C(=O)O[C@@]24C`, the “growth inhibition (GI)” value with PC-3 [13], in the data set on SF-268 [14], in the data set with MCF7 [15], in the data set with WI-38 [16] and in the data set with NCI-H460 [17] was less than 50% throughout.

By IC50 is commonly meant the concentration at which inhibition is half-maximal.
